{"source": "paper PMC11272598", "about": "“RG7774 (Vicasinabin), an orally bioavailable cannabinoid receptor 2 (CB2R) agonist, decreases retinal vascular permeability, leukocyte adhesion, and ocular inflammation in animal models” (Frontiers in Pharmacology, 2024)", "key": {"5-HT2B (h)": {"biological_target": "5-HT2B (h) (Homo sapiens, UniProt P41595)", "test": "CEREP radioligand binding", "details": "radioligand [^125I](±)DOI", "source_text": "(§1) Supplement Table1.docx, table 3: Supplementary Table S3. RG7774 binding to non-CB1R/CB2R receptors, ion channels, transporters, and enzymes (CEREP, Celle l’Evescault, France; http://www.cerep.fr). | column: % inhibition of control SB (n = 2)"}, "AT2 (h)": {"biological_target": "AT2 (h) (Homo sapiens, UniProt P50052)", "test": "CEREP radioligand binding", "details": "radioligand [^125I]-CGP 42112A", "source_text": "as §1"}, "PAC1 (PACAP) (h)": {"biological_target": "PAC1 (PACAP) (h) (Homo sapiens, UniProt P41586)", "sequence (P41586 21-468)": "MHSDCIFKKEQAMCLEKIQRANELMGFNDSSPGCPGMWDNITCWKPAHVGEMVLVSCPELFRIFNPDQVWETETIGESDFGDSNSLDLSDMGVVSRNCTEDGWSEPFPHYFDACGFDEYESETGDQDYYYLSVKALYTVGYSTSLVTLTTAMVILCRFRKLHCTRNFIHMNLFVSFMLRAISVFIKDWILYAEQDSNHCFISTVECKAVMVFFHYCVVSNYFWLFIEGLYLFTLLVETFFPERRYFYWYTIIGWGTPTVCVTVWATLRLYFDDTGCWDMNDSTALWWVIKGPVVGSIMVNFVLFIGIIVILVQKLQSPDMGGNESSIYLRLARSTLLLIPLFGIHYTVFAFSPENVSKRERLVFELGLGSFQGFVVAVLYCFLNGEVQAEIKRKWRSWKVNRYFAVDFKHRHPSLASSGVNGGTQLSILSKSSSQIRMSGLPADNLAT", "test": "CEREP radioligand binding", "details": "radioligand [^125I]-PACAP1-27", "source_text": "as §1"}, "μ(MOP) (h)": {"biological_target": "μ(MOP) (h) (Homo sapiens, UniProt P35372)", "sequence (P35372 whole entry)": "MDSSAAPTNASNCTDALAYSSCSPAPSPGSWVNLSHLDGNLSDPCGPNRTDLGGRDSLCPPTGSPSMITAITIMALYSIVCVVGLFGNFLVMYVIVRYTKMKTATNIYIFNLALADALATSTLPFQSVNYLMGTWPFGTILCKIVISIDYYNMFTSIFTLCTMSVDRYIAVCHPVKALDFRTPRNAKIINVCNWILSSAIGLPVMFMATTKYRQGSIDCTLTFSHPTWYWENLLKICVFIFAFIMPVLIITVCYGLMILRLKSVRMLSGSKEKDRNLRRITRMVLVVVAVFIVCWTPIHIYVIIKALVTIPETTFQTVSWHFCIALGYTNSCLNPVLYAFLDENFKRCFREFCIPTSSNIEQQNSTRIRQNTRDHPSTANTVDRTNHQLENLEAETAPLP", "test": "CEREP radioligand binding", "details": "radioligand [^3H]-DAMGO", "source_text": "as §1"}, "NTS1 (NT1) (h)": {"biological_target": "NTS1 (NT1) (h) (Homo sapiens, UniProt P30989)", "test": "CEREP radioligand binding", "details": "radioligand [^125I]-Tyr3-neurotensin", "source_text": "as §1"}, "B2 (h)": {"biological_target": "B2 (h) (Homo sapiens, UniProt P30411)", "test": "CEREP radioligand binding", "details": "radioligand [^3H]-bradykinin", "source_text": "as §1"}, "NOP (ORL1) (h)": {"biological_target": "NOP (ORL1) (h) (Homo sapiens, UniProt P41146)", "test": "CEREP radioligand binding", "details": "radioligand [^3H]-nociceptin", "source_text": "as §1"}, "AT1 (h)": {"biological_target": "AT1 (h) (Homo sapiens, UniProt P30556)", "test": "CEREP radioligand binding", "details": "radioligand [^125I]-[Sar^1,Ile^8]-AT-II", "source_text": "as §1"}, "D5": {"biological_target": "D5 (Homo sapiens, UniProt P21918)", "sequence (P21918 whole entry)": "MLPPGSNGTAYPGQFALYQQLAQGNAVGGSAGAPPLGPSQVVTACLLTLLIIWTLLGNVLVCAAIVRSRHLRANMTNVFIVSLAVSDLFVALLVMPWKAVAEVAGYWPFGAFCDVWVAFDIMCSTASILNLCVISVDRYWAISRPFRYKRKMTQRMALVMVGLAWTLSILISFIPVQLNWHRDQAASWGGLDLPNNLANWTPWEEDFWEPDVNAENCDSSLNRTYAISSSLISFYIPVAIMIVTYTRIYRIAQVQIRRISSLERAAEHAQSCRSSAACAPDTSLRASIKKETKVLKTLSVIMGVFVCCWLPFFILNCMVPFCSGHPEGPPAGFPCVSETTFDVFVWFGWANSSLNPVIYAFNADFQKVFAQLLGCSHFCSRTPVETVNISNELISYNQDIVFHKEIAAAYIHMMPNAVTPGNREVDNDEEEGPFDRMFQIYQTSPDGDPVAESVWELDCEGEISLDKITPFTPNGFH", "test": "CEREP radioligand binding", "details": "radioligand [^3H]-SCH 23390", "source_text": "as §1"}, "CCK1 (CCKA) (h)": {"biological_target": "CCK1 (CCKA) (h) (Homo sapiens, UniProt P32238)", "test": "CEREP radioligand binding", "details": "radioligand [^125I]-CCK-8s", "source_text": "as §1"}, "BZD (peripheral)": {"biological_target": "BZD (peripheral) (Rattus norvegicus, UniProt P16257)", "test": "CEREP radioligand binding", "details": "radioligand [^3H]-PK 11195", "source_text": "as §1"}, "Beta 2 (h)": {"biological_target": "Beta 2 (h) (Homo sapiens, UniProt P07550)", "sequence (P07550 whole entry)": "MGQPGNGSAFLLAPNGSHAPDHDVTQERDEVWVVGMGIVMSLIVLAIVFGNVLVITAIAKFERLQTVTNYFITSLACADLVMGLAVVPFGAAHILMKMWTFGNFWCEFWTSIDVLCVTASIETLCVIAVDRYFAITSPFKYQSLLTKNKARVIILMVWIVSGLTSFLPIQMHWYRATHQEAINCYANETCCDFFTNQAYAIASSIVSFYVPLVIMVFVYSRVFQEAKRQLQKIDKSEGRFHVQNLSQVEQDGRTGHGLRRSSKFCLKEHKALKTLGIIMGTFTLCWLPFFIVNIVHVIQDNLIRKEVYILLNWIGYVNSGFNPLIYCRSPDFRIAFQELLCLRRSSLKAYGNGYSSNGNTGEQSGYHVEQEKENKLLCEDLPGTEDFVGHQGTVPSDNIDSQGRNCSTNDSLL", "test": "CEREP radioligand binding", "details": "radioligand [^3H](-)CGP 12177", "source_text": "as §1"}, "M1 (h)": {"biological_target": "M1 (h) (Homo sapiens, UniProt P11229)", "sequence (P11229 whole entry)": "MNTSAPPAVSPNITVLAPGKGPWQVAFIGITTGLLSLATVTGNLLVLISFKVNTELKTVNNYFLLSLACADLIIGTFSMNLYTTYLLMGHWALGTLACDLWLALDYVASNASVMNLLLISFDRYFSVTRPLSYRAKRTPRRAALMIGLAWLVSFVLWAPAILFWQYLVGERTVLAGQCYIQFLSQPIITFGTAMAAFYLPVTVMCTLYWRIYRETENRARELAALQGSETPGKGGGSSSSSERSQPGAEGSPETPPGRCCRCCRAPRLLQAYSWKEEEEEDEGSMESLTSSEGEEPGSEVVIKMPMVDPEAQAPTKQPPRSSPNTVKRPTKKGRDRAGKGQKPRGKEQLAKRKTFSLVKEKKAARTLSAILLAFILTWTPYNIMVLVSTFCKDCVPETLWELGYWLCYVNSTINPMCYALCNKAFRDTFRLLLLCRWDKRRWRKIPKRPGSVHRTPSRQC", "test": "CEREP radioligand binding", "details": "radioligand [^3H]-pirenzepine", "source_text": "as §1"}, "EP2 (h)": {"biological_target": "EP2 (h) (Homo sapiens, UniProt P43116)", "sequence (P43116 whole entry)": "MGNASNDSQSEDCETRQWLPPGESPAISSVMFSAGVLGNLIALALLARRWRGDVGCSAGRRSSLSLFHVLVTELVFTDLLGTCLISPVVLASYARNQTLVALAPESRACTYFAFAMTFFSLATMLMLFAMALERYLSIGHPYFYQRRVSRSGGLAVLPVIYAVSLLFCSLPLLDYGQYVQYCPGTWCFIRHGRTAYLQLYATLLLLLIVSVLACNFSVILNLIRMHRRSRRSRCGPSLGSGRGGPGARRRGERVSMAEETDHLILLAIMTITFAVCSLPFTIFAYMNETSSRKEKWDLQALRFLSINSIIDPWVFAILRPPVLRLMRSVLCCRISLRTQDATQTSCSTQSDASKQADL", "test": "CEREP radioligand binding", "details": "radioligand [^3H]-PGE2", "source_text": "as §1"}, "M2 (h)": {"biological_target": "M2 (h) (Homo sapiens, UniProt P08172)", "test": "CEREP radioligand binding", "details": "radioligand [^3H]-AF-DX 384", "source_text": "as §1"}, "5-HT7 (h)": {"biological_target": "5-HT7 (h) (Homo sapiens, UniProt P34969)", "sequence (P34969 whole entry)": "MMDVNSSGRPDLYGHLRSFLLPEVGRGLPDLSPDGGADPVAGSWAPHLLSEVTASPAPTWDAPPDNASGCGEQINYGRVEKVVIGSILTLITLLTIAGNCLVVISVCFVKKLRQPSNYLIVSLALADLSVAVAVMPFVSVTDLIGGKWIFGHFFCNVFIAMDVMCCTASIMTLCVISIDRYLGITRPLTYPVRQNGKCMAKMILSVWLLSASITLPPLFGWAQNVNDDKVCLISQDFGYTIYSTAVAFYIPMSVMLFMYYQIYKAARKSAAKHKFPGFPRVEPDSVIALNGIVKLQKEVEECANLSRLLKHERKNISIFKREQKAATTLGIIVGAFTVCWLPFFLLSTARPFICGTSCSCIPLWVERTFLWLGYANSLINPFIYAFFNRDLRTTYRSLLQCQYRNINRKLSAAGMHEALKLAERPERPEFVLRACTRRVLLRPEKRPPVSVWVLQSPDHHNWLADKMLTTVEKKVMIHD", "test": "CEREP radioligand binding", "details": "radioligand [^3H]-LSD", "source_text": "as §1"}, "EP4 (h)": {"biological_target": "EP4 (h) (Homo sapiens, UniProt P35408)", "test": "CEREP radioligand binding", "details": "radioligand [^3H]-PGE2", "source_text": "as §1"}, "Alpha 1 (non-selective)": {"system": "Alpha 1 (non-selective)", "test": "CEREP radioligand binding", "details": "radioligand [^3H]-prazosin", "source_text": "as §1"}, "5-HT2A (h)": {"biological_target": "5-HT2A (h) (Homo sapiens, UniProt P28223)", "test": "CEREP radioligand binding", "details": "radioligand [^3H]-ketanserin", "source_text": "as §1"}, "5-HT1B (h)": {"biological_target": "5-HT1B (h) (Homo sapiens, UniProt P28222)", "sequence (P28222 whole entry)": "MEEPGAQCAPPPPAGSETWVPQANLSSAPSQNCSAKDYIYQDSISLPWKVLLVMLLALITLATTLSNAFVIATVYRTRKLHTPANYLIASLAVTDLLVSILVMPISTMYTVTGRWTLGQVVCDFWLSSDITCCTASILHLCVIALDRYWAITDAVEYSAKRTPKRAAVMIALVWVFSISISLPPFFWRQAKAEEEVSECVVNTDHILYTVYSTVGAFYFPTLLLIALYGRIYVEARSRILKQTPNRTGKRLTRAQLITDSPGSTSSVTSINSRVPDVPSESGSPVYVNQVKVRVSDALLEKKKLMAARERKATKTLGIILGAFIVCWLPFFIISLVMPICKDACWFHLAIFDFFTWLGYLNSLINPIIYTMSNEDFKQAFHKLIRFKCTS", "test": "CEREP radioligand binding", "details": "radioligand [^125I]-CYP (+ 30 μM isoproterenol)", "source_text": "as §1"}, "Y2 (h)": {"biological_target": "Y2 (h) (Homo sapiens, UniProt P49146)", "test": "CEREP radioligand binding", "details": "radioligand [^125I]-peptide YY", "source_text": "as §1"}, "GAL1": {"biological_target": "GAL1 (Homo sapiens, UniProt P47211)", "sequence (P47211 whole entry)": "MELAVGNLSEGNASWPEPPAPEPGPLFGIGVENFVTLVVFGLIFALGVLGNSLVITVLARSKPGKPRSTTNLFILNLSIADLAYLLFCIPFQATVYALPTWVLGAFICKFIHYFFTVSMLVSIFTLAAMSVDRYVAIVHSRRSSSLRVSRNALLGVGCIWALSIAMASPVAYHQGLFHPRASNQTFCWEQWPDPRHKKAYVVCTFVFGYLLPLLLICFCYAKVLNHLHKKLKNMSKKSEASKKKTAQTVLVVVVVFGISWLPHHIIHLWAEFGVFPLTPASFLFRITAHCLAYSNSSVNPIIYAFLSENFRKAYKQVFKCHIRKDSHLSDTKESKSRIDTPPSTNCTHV", "test": "CEREP radioligand binding", "details": "radioligand [^125I]-galanin", "source_text": "as §1"}, "MC4 (h)": {"biological_target": "MC4 (h) (Homo sapiens, UniProt P32245)", "test": "CEREP radioligand binding", "details": "radioligand [^125I]-NDP-α-MSH", "source_text": "as §1"}, "M5 (h)": {"biological_target": "M5 (h) (Homo sapiens, UniProt P08912)", "sequence (P08912 whole entry)": "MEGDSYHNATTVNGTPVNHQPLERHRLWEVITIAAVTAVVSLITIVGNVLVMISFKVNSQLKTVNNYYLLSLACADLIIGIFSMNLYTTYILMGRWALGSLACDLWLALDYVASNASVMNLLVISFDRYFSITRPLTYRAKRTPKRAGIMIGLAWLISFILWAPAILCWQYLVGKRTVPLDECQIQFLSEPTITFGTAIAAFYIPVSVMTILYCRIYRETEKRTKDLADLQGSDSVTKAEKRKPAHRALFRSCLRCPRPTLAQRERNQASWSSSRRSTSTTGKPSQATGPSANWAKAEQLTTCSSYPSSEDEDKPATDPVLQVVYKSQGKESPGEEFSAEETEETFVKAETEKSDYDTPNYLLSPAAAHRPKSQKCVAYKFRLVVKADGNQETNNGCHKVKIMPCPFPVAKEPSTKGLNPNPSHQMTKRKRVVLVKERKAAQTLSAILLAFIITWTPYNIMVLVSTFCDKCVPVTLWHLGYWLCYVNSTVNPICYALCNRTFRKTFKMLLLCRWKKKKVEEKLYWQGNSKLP", "test": "CEREP radioligand binding", "details": "radioligand [^3H]-4-DAMP", "source_text": "as §1"}, "CXCR2": {"biological_target": "CXCR2 (Homo sapiens, UniProt P25025)", "sequence (P25025 whole entry)": "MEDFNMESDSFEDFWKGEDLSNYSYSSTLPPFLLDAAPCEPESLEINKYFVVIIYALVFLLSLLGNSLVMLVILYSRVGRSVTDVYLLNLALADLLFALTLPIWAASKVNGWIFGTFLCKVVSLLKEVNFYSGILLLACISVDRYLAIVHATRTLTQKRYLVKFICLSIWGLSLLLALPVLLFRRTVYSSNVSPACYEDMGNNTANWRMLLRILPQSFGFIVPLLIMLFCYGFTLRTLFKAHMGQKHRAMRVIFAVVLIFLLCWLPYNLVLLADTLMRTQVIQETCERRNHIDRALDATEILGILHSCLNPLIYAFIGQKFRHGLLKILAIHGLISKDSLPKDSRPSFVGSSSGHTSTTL", "test": "CEREP radioligand binding", "details": "radioligand [^125I]-IL-8", "source_text": "as §1"}, "PCP": {"system": "PCP", "test": "CEREP radioligand binding", "details": "radioligand [^3H]-TCP", "source_text": "as §1"}, "TNF-α": {"system": "TNF-α", "test": "CEREP radioligand binding", "details": "radioligand [^125I]-TNF-α", "source_text": "as §1"}, "GABA (non-selective)": {"system": "GABA (non-selective)", "test": "CEREP radioligand binding", "details": "radioligand [^3H]-GABA", "source_text": "as §1"}, "P2Y": {"system": "P2Y", "test": "CEREP radioligand binding", "details": "radioligand [^35S]-dATPαS", "source_text": "as §1"}, "D1 (h)": {"biological_target": "D1 (h) (Homo sapiens, UniProt P21728)", "test": "CEREP radioligand binding", "details": "radioligand [^3H]-SCH 23390", "source_text": "as §1"}, "M4 (h)": {"biological_target": "M4 (h) (Homo sapiens, UniProt P08173)", "test": "CEREP radioligand binding", "details": "radioligand [^3H]-4-DAMP", "source_text": "as §1"}, "NK2 (h)": {"biological_target": "NK2 (h) (Homo sapiens, UniProt P21452)", "test": "CEREP radioligand binding", "details": "radioligand [^125I]-NKA", "source_text": "as §1"}, "Mouse CB1R": {"biological_target": "Mouse CB1R (Mus musculus, UniProt P47746)", "test": "Mouse cAMP assay in N18TG2 cells", "assay_type": "cell-based", "details": "RG7774 10 µM, N18TG2 cells; read-out: Mean ± SEM % inhibition of control, Mouse CB1R (cAMP assay)", "method": "The effect of RG7774 on the forskolin-stimulated accumulation of cAMP was determined using the LANCE ULTRAcAMP kit (PerkinElmer Life Sciences, MA, USA), according to the manufacturer’s instructions. Briefly, N18TG2 cells preincubated for 30 min with 1-methyl-3-isobutylxanthine (1 mM) were added to 0.5 µM forskolin preincubated with or without RG7774 for 15 min. Reactions were incubated for 30 min at 37°C and Time-resolved fluorescence was measured using a Victor V Multilabel counter (PerkinElmer Life Sciences). Data were transformed into cAMP concentrations using a standard curve."}}, "data": [{"smiles": "Cn1nnnc1Cn1nnc2c(N3CC[C@H](O)C3)nc(C(C)(C)C)nc21", "note": "[RG7774, (S)-1-(5-tert-butyl-3-[(1-methyl-1H-tetrazol-5-yl)methyl]-3H-[1,2,3]triazolo[4,5-d]pyrimidin-7-yl)pyrrolidin-3-ol]", "values": [{"measurement": "% inhibition of control SB (n = 2)", "setting": "5-HT2B (h)", "result": "–24.1%"}, {"measurement": "% inhibition of control SB (n = 2)", "setting": "AT2 (h)", "result": 3.1, "unit": "%"}, {"measurement": "% inhibition of control SB (n = 2)", "setting": "PAC1 (PACAP) (h)", "result": "–1.3%"}, {"measurement": "% inhibition of control SB (n = 2)", "setting": "μ(MOP) (h)", "result": "–2.5%"}, {"measurement": "% inhibition of control SB (n = 2)", "setting": "NTS1 (NT1) (h)", "result": "–4.7%"}, {"measurement": "% inhibition of control SB (n = 2)", "setting": "B2 (h)", "result": "–1.6%"}, {"measurement": "% inhibition of control SB (n = 2)", "setting": "NOP (ORL1) (h)", "result": 2.7, "unit": "%"}, {"measurement": "% inhibition of control SB (n = 2)", "setting": "AT1 (h)", "result": "–5.6%"}, {"measurement": "% inhibition of control SB (n = 2)", "setting": "D5", "result": "–2.0%"}, {"measurement": "% inhibition of control SB (n = 2)", "setting": "CCK1 (CCKA) (h)", "result": "–7.4%"}, {"measurement": "% inhibition of control SB (n = 2)", "setting": "BZD (peripheral)", "result": "–12.0%"}, {"measurement": "% inhibition of control SB (n = 2)", "setting": "Beta 2 (h)", "result": "–1.3%"}, {"measurement": "% inhibition of control SB (n = 2)", "setting": "M1 (h)", "result": "–15.6%"}, {"measurement": "% inhibition of control SB (n = 2)", "setting": "EP2 (h)", "result": "–13.4%"}, {"measurement": "% inhibition of control SB (n = 2)", "setting": "M2 (h)", "result": "–8.7%"}, {"measurement": "% inhibition of control SB (n = 2)", "setting": "5-HT7 (h)", "result": 3.9, "unit": "%"}, {"measurement": "% inhibition of control SB (n = 2)", "setting": "EP4 (h)", "result": "–8.7%"}, {"measurement": "% inhibition of control SB (n = 2)", "setting": "Alpha 1 (non-selective)", "result": 6.9, "unit": "%"}, {"measurement": "% inhibition of control SB (n = 2)", "setting": "5-HT2A (h)", "result": "–4.8%"}, {"measurement": "% inhibition of control SB (n = 2)", "setting": "5-HT1B (h)", "result": "–10.6%"}, {"measurement": "% inhibition of control SB (n = 2)", "setting": "Y2 (h)", "result": "–3.6%"}, {"measurement": "% inhibition of control SB (n = 2)", "setting": "GAL1", "result": "–9.1%"}, {"measurement": "% inhibition of control SB (n = 2)", "setting": "MC4 (h)", "result": "–14.5%"}, {"measurement": "% inhibition of control SB (n = 2)", "setting": "M5 (h)", "result": "–2.7%"}, {"measurement": "% inhibition of control SB (n = 2)", "setting": "CXCR2", "result": "–7.7%"}, {"measurement": "% inhibition of control SB (n = 2)", "setting": "PCP", "result": "–4.4%"}, {"measurement": "% inhibition of control SB (n = 2)", "setting": "TNF-α", "result": 4.9, "unit": "%"}, {"measurement": "% inhibition of control SB (n = 2)", "setting": "GABA (non-selective)", "result": "–16.1%"}, {"measurement": "% inhibition of control SB (n = 2)", "setting": "P2Y", "result": 2.3, "unit": "%"}, {"measurement": "% inhibition of control SB (n = 2)", "setting": "D1 (h)", "result": "–1.0%"}, {"measurement": "% inhibition of control SB (n = 2)", "setting": "M4 (h)", "result": "–8.9%"}, {"measurement": "% inhibition of control SB (n = 2)", "setting": "NK2 (h)", "result": "–5.5%"}, {"measurement": "inhibition at 10 µM", "setting": "Mouse CB1R", "result": 16.6, "unit": "%"}]}]}
